Values quoted from earlier work in patent EP0307115A1, “Phenol esters” (IMPERIAL CHEMICAL INDUSTRIES PLC, priority 1987, dated 1989).

Conditions: dosed orally in man

- absorbed from the gastrointestinal tract, extent of the administered dose: 9-10%
Compound: O=C(NCCNCC(O)COc1ccc(O)cc1)N1CCOCC1 (racemic) [xamoterol, N-(2-[(RS)-2-hydroxy-3-(4-hydroxyphenoxy)-propylamino]ethyl)morpholine-4-carboxamide]
